Source: patent publication US11535643B2, “Macrolides with modified desosamine sugars and uses thereof” (President and Fellows of Harvard College, priority 2015, dated 2022)
Values after ≈ are worked out from the molar mass of the structure shown. Like-named read-outs stand apart in the source and are kept apart here.

Key:
Assay type in all cases: cell-based
E. coli = assay: Broth dilution MIC determination (CLSI) against E. coli strains; settings: Escherichia coli
Method in brief: (§1)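 MICs were determined by CLSI standard broth dilution against several strains per species, including multidrug-resistant and macrolide-resistant strains. Azithromycin and solithromycin served as control compounds.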

S. aureus = assay: Broth dilution MIC determination (CLSI) against S. aureus strains; settings: Staphylococcus aureus
Method in brief: as §1

S. pyogenes = assay: Broth dilution MIC determination (CLSI) against S. pyogenes strains; settings: Streptococcus pyogenes
Method in brief: as §1

K. pneumoniae = assay: Broth dilution MIC determination (CLSI) against K. pneumoniae strains; settings: Klebsiella pneumoniae
Method in brief: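 Azithromycin and solithromycin served as controls; MICs were obtained by standard CLSI broth dilution on a strain panel including multidrug-resistant and macrolide-resistant isolates.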

E. faecalis = assay: Broth dilution MIC determination (CLSI) against E. faecalis strains; settings: Enterococcus faecalis
Method in brief: as §1

S. pneumoniae = assay: Broth dilution MIC determination (CLSI) against S. pneumoniae strains; settings: Streptococcus pneumoniae
Method in brief: as §1

P. aeruginosa = assay: Broth dilution MIC determination (CLSI) against P. aeruginosa strains; settings: Pseudomonas aeruginosa
Method in brief: as §1

H. influenzae = assay: Broth dilution MIC determination (CLSI) against H. influenzae strains; settings: Haemophilus influenzae
Method in brief: as §1

A. baumannii = assay: Broth dilution MIC determination (CLSI) against A. baumannii strains; settings: Acinetobacter baumannii
Method in brief: as §1

[1] = ATCC25922, ATCC25922, read-out: MIC E. coli ATCC25922
[2] = read-out: MIC E. coli CTX-M-14, CTX-M-14
[3] = read-out: MIC E. coli NDM-1, NDM-1
[4] = read-out: MIC E. coli TEM-1, TEM-1
[5] = ATCC29213, ATCC29213, read-out: MIC S. aureus ATCC29213
[6] = MRSA / USA100, MRSA: USA100, read-out: MIC S. aureus MRSA: USA100
[7] = MRSA / USA300, MRSA: USA300, read-out: MIC S. aureus MRSA: USA300
[8] = USA600, USA600, GISA, read-out: MIC S. aureus USA600, GISA
[9] = read-out: MIC S. aureus erm A genotype
[10] = ATCC19615, ATCC19615, read-out: MIC S. pyogenes ATCC19615
[11] = macrolide-resistant, read-out: MIC S. pyogenes macrolide-resistant
[12] = ATCC10031, ATCC10031, read-out: MIC K. pneumoniae ATCC10031
[13] = KPC-2, read-out: MIC K. pneumoniae KPC-2
[14] = SHV-12, read-out: MIC K. pneumoniae SHV-12
[15] = TEM-10, read-out: MIC K. pneumoniae TEM-10
[16] = ATCC29212, ATCC29212, read-out: MIC E. faecalis ATCC29212
[17] = Vancomycin-resistant, read-out: MIC E. faecalis Vancomycin-resistant
[18] = ATCC49619, ATCC49619, read-out: MIC S. pneumoniae ATCC49619
[19] = erm B + mef A genotype, read-out: MIC S. pneumoniae erm B + mef A genotype
[20] = erm B + tet(M, O) genotype, read-out: MIC S. pneumoniae erm B + tet(M, O) genotype
[21] = read-out: MIC S. pneumoniae mef A genotype, mef A genotype
[22] = read-out: MIC S. pneumoniae mef A genotype, mef A genotype, first of two such columns (c3)
[23] = ATCC27853, read-out: MIC P. aeruginosa ATCC27853
[24] = read-out: MIC P. aeruginosa HPA101-1477
[25] = ATCC49247, ATCC49247, read-out: MIC H. influenzae ATCC49247
[26] = erythro > 4, azithro 1, read-out: MIC H. influenzae erythro > 4, azithro 1
[27] = ATCC19606, ATCC19606, read-out: MIC A. baumannii ATCC19606
[28] = IMP-4, read-out: MIC A. baumannii IMP-4
[29] = chromosomal class C, read-out: MIC A. baumannii chromosomal class C
[30] = imipenem-resistant, read-out: MIC A. baumannii imipenem-resistant

SMILES | MIC (E. coli; [1]) [µg/mL] | MIC (E. coli; [2]) [µg/mL] | MIC (E. coli; [3]) [µg/mL] | MIC (E. coli; [4]) [µg/mL] | MIC (S. aureus; [5]) [µg/mL] | MIC (S. aureus; [6]) [µg/mL] | MIC (S. aureus; [7]) [µg/mL] | MIC (S. aureus; [8]) [µg/mL] | MIC (S. aureus; [9]) [µg/mL] | MIC (S. pyogenes; [10]) [µg/mL] | MIC (S. pyogenes; [11]) [µg/mL] | MIC (K. pneumoniae; [12]) [µg/mL] | MIC (K. pneumoniae; [13]) [µg/mL] | MIC (K. pneumoniae; [14]) [µg/mL] | MIC (K. pneumoniae; [15]) [µg/mL] | MIC (E. faecalis; [16]) [µg/mL] | MIC (E. faecalis; [17]) [µg/mL] | MIC (S. pneumoniae; [18]) [µg/mL] | MIC (S. pneumoniae; [19]) [µg/mL] | MIC (S. pneumoniae; [20]) [µg/mL] | other results
CC[C@H]1OC(=O)[C@H](C)C(=O)[C@H](C)[C@@H](O[C@@H]2OC(CNC(=O)c3cnccn3)CC(N(C)C)C2O)[C@](C)(OC)C[C@@H](C)CN[C@H](C)[C@H]2N(CCCCn3cc(-c4cccc(N)c4)nn3)C(=O)O[C@]12C (stereo partly drawn) [FSM-21881] | 16 (≈ 16.9 µM) | > 32 | > 32 | 32 (≈ 33.7 µM) | 8 (≈ 8.43 µM) | > 32 | > 32 | > 32 | > 32 | ≤ 0.0312 | 2 (≈ 2.11 µM) | 8 (≈ 8.43 µM) | > 32 | > 32 | 32 (≈ 33.7 µM) | 2 (≈ 2.11 µM) | > 32 | ≤ 0.0312 | 4 | ≤ 0.0312 | MIC (S. pneumoniae; [21]): 2 µg/mL (≈ 2.11 µM); MIC (S. pneumoniae; [22]): 0.5 µg/mL (≈ 0.527 µM); MIC (P. aeruginosa; [23]): > 32 µg/mL; MIC (P. aeruginosa; [24]): > 32 µg/mL; MIC (H. influenzae; [25]): 8 µg/mL (≈ 8.43 µM); MIC (H. influenzae; [26]): 2 µg/mL (≈ 2.11 µM); MIC (A. baumannii; [27]): > 32 µg/mL; MIC (A. baumannii; [28]): > 32 µg/mL; MIC (A. baumannii; [29]): > 32 µg/mL; MIC (A. baumannii; [30]): > 32 µg/mL
CC[C@H]1OC(=O)[C@H](C)C(=O)[C@H](C)[C@@H](O[C@@H]2OC(CNC(=O)c3ccccn3)CC(N(C)C)C2O)[C@](C)(OC)C[C@@H](C)CN[C@H](C)[C@H]2N(CCCCn3cc(-c4cccc(N)c4)nn3)C(=O)O[C@]12C (stereo partly drawn) [FSM-21887] | 16 (≈ 16.9 µM) | > 32 | 32 (≈ 33.7 µM) | 16 (≈ 16.9 µM) | 8 (≈ 8.44 µM) | > 32 | > 32 | > 32 | > 32 | ≤ 0.0312 | 1 (≈ 1.05 µM) | 8 (≈ 8.44 µM) | > 32 | > 32 | 16 (≈ 16.9 µM) | 0.5 (≈ 0.527 µM) | > 32 | ≤ 0.0312 | 1 | ≤ 0.0312 | MIC (S. pneumoniae; [21]): 0.5 µg/mL (≈ 0.527 µM); MIC (S. pneumoniae; [22]): 0.0625 µg/mL (≈ 0.0659 µM); MIC (P. aeruginosa; [23]): > 32 µg/mL; MIC (P. aeruginosa; [24]): > 32 µg/mL; MIC (H. influenzae; [25]): 2 µg/mL (≈ 2.11 µM); MIC (H. influenzae; [26]): 2 µg/mL (≈ 2.11 µM); MIC (A. baumannii; [27]): 32 µg/mL (≈ 33.7 µM); MIC (A. baumannii; [28]): > 32 µg/mL; MIC (A. baumannii; [29]): 32 µg/mL (≈ 33.7 µM); MIC (A. baumannii; [30]): 32 µg/mL (≈ 33.7 µM)
